# Laboratory results published in patent US4436904A, “Cephalosporins” (Kanto Ishi Pharmaceutical Co., Ltd., priority 1981, dated 1984).
# Where two headings read alike, the source gives them in different places.
# What was measured:
# Assay in all cases: Minimum inhibitory concentration (MIC), standard method of the Japanese Chemotherapeutic Association
# [1] = test system: Serratia marcenscens IFO 12648; type: cell-based
# [2] = test system: Proteus morganii IID 602; type: cell-based; details: Morganella morganii
# [3] = test system: Enterobacter cloacae IID 977; type: cell-based; details: IID977, Inoculum size: 10^6 cells/ml, weight concentration, read-out: Minimum Inhibitory Concentration (MIC)
# [4] = test system: Salmonella enteritidis IID 604; type: cell-based; details: Salmonella enterica, read-out: Minimum Inhibitory Concentration (MIC)
# [5] = test system: Shigella dysenteriae IID 633; details: IID633, read-out: Minimum Inhibitory Concentration (MIC)
# [6] = test system: Pseudomonas pudita IID 5121; type: cell-based; details: IID5121, Inoculum size: 10^6 cells/ml, weight concentration, read-out: Minimum Inhibitory Concentration (MIC)
# [7] = test system: Pseudomonas aeruginosa IFO 3080; type: cell-based; details: IFO3080, read-out: Minimum Inhibitory Concentration (MIC)
# [8] = test system: Staphylococcus aureus TERAJIMA; type: cell-based; details: read-out: Minimum Inhibitory Concentration (MIC)
# [9] = test system: Pseudomonas aeruginosa IFO 13739; type: cell-based; details: IFO13739, Inoculum size: 10^6 cells/ml, weight concentration, read-out: Minimum Inhibitory Concentration (MIC)
# [10] = test system: Salmonella typhimurium IID 1000; type: cell-based; details: Salmonella enterica, read-out: Minimum Inhibitory Concentration (MIC)
# [11] = test system: Staphylococcus epidermidis ATCC12228; type: cell-based; details: ATCC12228, Inoculum size: 10^6 cells/ml, weight concentration, read-out: Minimum Inhibitory Concentration (MIC)
# [12] = test system: Klebsiella pneumoniae IID 865; type: cell-based; details: IID865, Inoculum size: 10^6 cells/ml, weight concentration, read-out: Minimum Inhibitory Concentration (MIC)
# [13] = test system: Proteus vulgaris; type: cell-based; details: read-out: Minimum Inhibitory Concentration (MIC)
# [14] = test system: Escherichia coli N I H J; type: cell-based; details: Inoculum size: 10^6 cells/ml, weight concentration, read-out: Minimum Inhibitory Concentration (MIC)
# [15] = test system: Salmonella paratyphi IID 605; details: Salmonella enterica, IID605|PARATYPHI, read-out: Minimum Inhibitory Concentration (MIC)
# [16] = test system: Enterobacter aerogenes IID 5206; type: cell-based; details: Klebsiella aerogenes
# [17] = test system: Escherichia coli MEGAWA; type: cell-based; details: Escherichia coli; Inoculum size: 10^6 cells/ml; weight concentration; read-out: Minimum Inhibitory Concentration (MIC)
# [18] = test system: Shigella boydii IID 627; type: cell-based; details: IID627, Inoculum size: 10^6 cells/ml, weight concentration
# [19] = test system: Shigella sonnei IID 969; type: cell-based; details: IID969, Inoculum size: 10^6 cells/ml, weight concentration
# [20] = test system: Bacillus subtilis ATCC 6633; type: cell-based; details: ATCC6633, Inoculum size: 10^6 cells/ml, weight concentration, read-out: Minimum Inhibitory Concentration (MIC)
# [21] = test system: Staphylococcus aureus 209-P; type: cell-based; details: read-out: Minimum Inhibitory Concentration (MIC)
# [22] = IFO12648, read-out: Minimum Inhibitory Concentration (MIC)
# [23] = IID602, Inoculum size: 10^6 cells/ml, weight concentration, read-out: Minimum Inhibitory Concentration (MIC)
# [24] = Inoculum size: 10^6 cells/ml, weight concentration
# [25] = IID5206, Inoculum size: 10^6 cells/ml, weight concentration, read-out: Minimum Inhibitory Concentration (MIC)
SMILES,"MIC [1, 22] [µg/mL]","MIC [2, 23] [µg/mL]",MIC [3] [µg/mL],MIC [4] [µg/mL],MIC [5] [µg/mL],MIC [6] [µg/mL],MIC [7] [µg/mL],MIC [9] [µg/mL],MIC [10] [µg/mL],MIC [11] [µg/mL],MIC [12] [µg/mL],MIC [14] [µg/mL],MIC [15] [µg/mL],MIC [17] [µg/mL],MIC [18] [µg/mL],MIC [19] [µg/mL],MIC [20] [µg/mL],"MIC [8, 24] [µg/mL]",MIC [13] [µg/mL],"MIC [16, 25] [µg/mL]",also measured
"Cn1nnnc1SCC1=C(C(=O)O)N2C(=O)C(NC(=O)[C@H](NC(=O)N3CCN(N=C4SCCS4)C3=O)c3ccc(O)cc3)C2SC1 (single isomer, unassigned) [KI-6269, sodium 7-{D-(-)-α-[(2-oxo-3-(1,3-dithiolan-2-imino)-imidazolidin-1-yl)-carboxamido]-4-hydroxyphenylacetamido}-3-[(1-methyl-1,2,3,4-tetrazol-5-yl)-thiomethyl]-3-cephem-4-carboxylate]",1.56,3.13,3.13,1.56,< 0.1,25,1.56,6.25,1.56,0.39,0.2,< 0.1,1.56,6.25,< 0.1,0.2,0.78,,,,"MIC [8]: 1.56 µg/mL; MIC [13, 24]: 0.78 µg/mL; MIC ([16]; IID5206, read-out: Minimum Inhibitory Concentration (MIC)): 1.56 µg/mL; MIC [21]: 1.56 µg/mL"
"Cn1nnnc1SCC1=C(C(=O)O)N2C(=O)C(NC(=O)[C@H](NC(=O)N3CCN(N=C4SCCS4)C3=O)c3ccccc3)C2SC1 (single isomer, unassigned) [KI-6248, sodium 7-{D-(-)-α-[(2-oxo-3-(1,3-dithiolan-2-imino)-imidazolidin-1-yl)-carboxamido]-phenylacetamido}-3-[(1-methyl-1,2,3,4-tetrazol-5-yl)-thiomethyl]-3-cephem-4-carboxylate]",,3.13,3.13,,0.2,25,1.56,12.5,,0.39,< 0.1,< 0.1,1.56,6.25,0.39,0.78,0.78,0.78,1.56,3.13,"MIC ([1]; IFO12648, Inoculum size: 10^6 cells/ml, weight concentration, read-out: Minimum Inhibitory Concentration (MIC)): 3.13 µg/mL; MIC [4, 24]: 3.13 µg/mL; MIC [10, 24]: 0.78 µg/mL; MIC [21, 24]: 0.78 µg/mL"
"Cc1nnc(SCC2=C(C(=O)O)N3C(=O)C(NC(=O)[C@H](NC(=O)N4CCN(N=C5SCCS5)C4=O)c4ccccc4)C3SC2)s1 (single isomer, unassigned) [TO-180, 7-{D-(-)-α-[(2-oxo-3-(1,3-dithiolan-2-imino)-imidazolidin-1-yl)-carboxamido]-phenylacetoamide}-3-[5-methyl-(1,3,4-thiadiazol-2-yl)-thiomethyl]-3-cephem-4-carboxylic acid]",1.56,,3.13,1.56,0.39,25,1.56,6.25,1.56,0.39,0.39,< 0.1,1.56,6.25,0.39,0.39,0.78,0.39,1.56,3.13,"MIC ([2]; IID602, read-out: Minimum Inhibitory Concentration (MIC)): 1.56 µg/mL; MIC [21, 24]: 0.39 µg/mL"
